Laboratory results from ChEMBL document CHEMBL1201862, “PubChem BioAssay data set” (2004).
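Compound exposure: 48 hours, 5 concentrations, 96-well plates. GI50 marks 50% less growth.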 Calls of active or inactive are those of the source. No stated cut-off is given here; in the data, active = GI50 up to about 1.1 µM and inactive = higher.

What was measured:
Experiment in all cases: NCI-60 cell line screen, 48 h
COLO 205 = system: COLO 205
MDA-MB-231 = system: MDA-MB-231
HCT-15 = system: HCT-15
HCT-116 = system: HCT-116
NCI-H23 = system: NCI-H23
SNB-75 = system: SNB-75
RXF 393 = system: RXF 393
SN12C = system: SN12C
EKVX = system: EKVX
IGROV-1 = system: IGROV-1
NCI-H226 = system: NCI-H226
UACC-257 = system: UACC-257
SF-268 = system: SF-268
Malme-3M = system: Malme-3M
HL-60 = system: HL-60
TK-10 = system: TK-10
DU-145 = system: DU-145
SW-620 = system: SW-620
RPMI-8226 = system: RPMI-8226
MDA-MB-435 = system: MDA-MB-435

Compound	GI50 (COLO 205)	GI50 (MDA-MB-231)	GI50 (HCT-15) [µM]	GI50 (HCT-116)	GI50 (NCI-H23)	GI50 (SNB-75)	GI50 (RXF 393)	GI50 (SN12C)	GI50 (EKVX)	GI50 (IGROV-1)	GI50 (NCI-H226)	GI50 (UACC-257)	GI50 (SF-268)	GI50 (Malme-3M)	GI50 (HL-60)	GI50 (TK-10)	GI50 (DU-145)	GI50 (SW-620)	GI50 (RPMI-8226)	GI50 (MDA-MB-435)
C[N+](C)([O-])C12CC3CC(CC(C3)C1)C2	27 µM (inactive)	> 100 µM (inactive)	30.6	23.9 µM (inactive)	28.2 µM (inactive)	28.2 µM (inactive)	37.5 µM (inactive)	33.7 µM (inactive)	21.4 µM (inactive)	25.3 µM (inactive)	55.2 µM (inactive)	39.2 µM (inactive)	38.3 µM (inactive)	54.3 µM (inactive)	44.6 µM (inactive)	20.9 µM (inactive)	37.2 µM (inactive)	41.8 µM (inactive)	29.9 µM (inactive)	28.4 µM (inactive)
C[C@H](CCC1=NCCN1)[C@H]1CC[C@H]2[C@@H]3CC[C@@H]4C[C@H](O)CC[C@]4(C)[C@H]3C[C@H](O)[C@]12C	10.2 µM (inactive)	14.9 µM (inactive)	53.1	20.5 µM (inactive)	14.1 µM (inactive)	2.37 µM (inactive)	18 µM (inactive)	16.9 µM (inactive)	18.5 µM (inactive)	7.38 µM (inactive)	14.3 µM (inactive)	15.4 µM (inactive)	7.36 µM (inactive)	13.7 µM (inactive)	10.8 µM (inactive)	14 µM (inactive)	15.6 µM (inactive)	19.9 µM (inactive)	11.3 µM (inactive)	14.5 µM (inactive)
CC(=O)Nc1[nH]c(C#N)nc1C#N	> 100 µM (inactive)	> 100 µM (inactive)	> 100	> 100 µM (inactive)	> 100 µM (inactive)	> 100 µM (inactive)	> 100 µM (inactive)	> 100 µM (inactive)	> 100 µM (inactive)	> 100 µM (inactive)	> 100 µM (inactive)	> 100 µM (inactive)	> 100 µM (inactive)	> 100 µM (inactive)	> 100 µM (inactive)	> 100 µM (inactive)	> 100 µM (inactive)	> 100 µM (inactive)	> 100 µM (inactive)	> 100 µM (inactive)
CCC1(CC)C(=O)NN(C(=O)c2ccc(Cl)cc2)C1=O	> 100 µM (inactive)	> 100 µM (inactive)	> 100	> 100 µM (inactive)	> 100 µM (inactive)	> 100 µM (inactive)	> 100 µM (inactive)	> 100 µM (inactive)	> 100 µM (inactive)	> 100 µM (inactive)	> 100 µM (inactive)	> 100 µM (inactive)	> 100 µM (inactive)	0.23 µM (active)	> 100 µM (inactive)	> 100 µM (inactive)	> 100 µM (inactive)	> 100 µM (inactive)	> 100 µM (inactive)	> 100 µM (inactive)
N=C(CCl)NC1CN2CCC1CC2 (stereo not given)	27.4 µM (inactive)	> 100 µM (inactive)	> 100	> 100 µM (inactive)	> 100 µM (inactive)	> 100 µM (inactive)	> 100 µM (inactive)	66.7 µM (inactive)	67.5 µM (inactive)	> 100 µM (inactive)	> 100 µM (inactive)	> 100 µM (inactive)	92.9 µM (inactive)	> 100 µM (inactive)	18.4 µM (inactive)	> 100 µM (inactive)	> 100 µM (inactive)	68.7 µM (inactive)	> 100 µM (inactive)	> 100 µM (inactive)
O=C1Nc2ccccc2/C1=C\c1c(Cl)n(-c2ccccc2)c2ccccc12	1.61 µM (inactive)	3.03 µM (inactive)	2.49	2.11 µM (inactive)	2.45 µM (inactive)	1.73 µM (inactive)	2.14 µM (inactive)	3.61 µM (inactive)	2.33 µM (inactive)	2.75 µM (inactive)	1.7 µM (inactive)	9.2 µM (inactive)	0.832 µM (active)	2.07 µM (inactive)	2.77 µM (inactive)	3.95 µM (inactive)	2.79 µM (inactive)	2.47 µM (inactive)	4.92 µM (inactive)	0.759 µM (active)
